Results as given in ChEMBL document CHEMBL4311946, “Mechanistic Insight on the Mode of Action of Colletoic Acid” (J Med Chem, 2019).
Calls of active or inactive are those of the source. No cut-off for these calls is given here.

How the values were obtained:
[1] = tested on: 3T3-L1; assay: Anti-adipogenic activity in differentiated mouse 3T3L1 cells assessed as reduction in PGC1alpha expression at 50 uM measured on day 7 by Western blot analysis; format: functional, cell-based
[2] = tested on: 3T3-L1; assay: Anti-adipogenic activity in differentiated mouse 3T3L1 cells assessed as reduction in 11beta-HSD1 expression at 50 uM measured on day 3 by Western blot analysis; format: functional, cell-based
[3] = tested on: 3T3-L1; assay: Anti-adipogenic activity in mouse 3T3L1 preadipocytes assessed as decrease in lipid accumulation at 50 uM measured after 3 days under induction medium containing dehydrocorticosterone/cortisone by Oil red O staining-based microscopic analysis; format: functional, cell-based
[4] = tested on: Homo sapiens; assay: Anti-adipogenic activity in human subcutaneous preadipocytes assessed as reduction in pre-adipocyte differentiation into matured adipocytes at 50 uM incubated for 48 hrs under induction medium containing hydrocortisone hemi-succinate prior to compound washout followed by shifting to differentiation medium containing compound supplemented with fresh medium every 48 to 72 hrs for 9 to 14 days by oil red O staining-based microscopic analysis; format: functional, cell-based
[5] = biological target: 11-beta-hydroxysteroid dehydrogenase 1 (Homo sapiens, UniProt P28845, C272S); assay: Inhibition of N-terminal MKHQHQHQHQHQHQQPL-tagged 11beta-HSD1 C272S mutant (unknown origin) expressed in Escherichia coli BL21 (DE3) using cortisol as substrate measured for 1 hr in presence of NADPH by fluorescence assay
Sequence of 11-beta-hydroxysteroid dehydrogenase 1 (P28845 whole entry C272S): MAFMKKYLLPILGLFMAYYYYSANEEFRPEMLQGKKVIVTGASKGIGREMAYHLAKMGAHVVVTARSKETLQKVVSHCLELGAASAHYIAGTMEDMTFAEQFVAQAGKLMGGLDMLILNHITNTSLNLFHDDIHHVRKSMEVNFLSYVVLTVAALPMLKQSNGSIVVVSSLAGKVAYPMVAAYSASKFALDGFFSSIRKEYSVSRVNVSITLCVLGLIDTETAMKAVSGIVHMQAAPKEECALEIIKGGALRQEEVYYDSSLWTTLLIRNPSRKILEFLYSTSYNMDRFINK

[6] = organism: Homo sapiens; assay: Anti-adipogenic activity in human visceral preadipocytes assessed as decrease in lipid accumulation at 50 uM incubated for 48 hrs under induction medium containing hydrocortisone hemi-succinate prior to compound washout followed by shifting to differentiation medium containing compound supplemented with fresh medium every 48 to 72 hrs for 9 to 14 days by oil red O staining-based microscopic analysis; format: functional, cell-based
[7] = Half life in mouse liver microsomes; format: ADME, Microsome
[8] = tested on: 3T3-L1; assay: Anti-adipogenic activity in mouse 3T3L1 preadipocytes assessed as reduction in C/EBPalpha mRNA expression at 50 to 100 uM measured daily for 2 days under induction media containing dehydrocorticosterone/cortisone by SYBR green dye-based qRT-PCR analysis; format: functional, cell-based
[9] = tested on: 3T3-L1; assay: Anti-adipogenic activity in differentiated mouse 3T3L1 cells assessed as reduction in PPARgamma expression at 50 uM measured on day 3 by Western blot analysis; format: functional, cell-based
[10] = tested on: 3T3-L1; assay: Anti-adipogenic activity in differentiated mouse 3T3L1 cells assessed as reduction in Glut4 mRNA expression at 50 to 100 uM measured after 2 to 7 days by SYBR green dye-based qRT-PCR analysis; format: functional, cell-based
[11] = tested on: 3T3-L1; assay: Anti-adipogenic activity in differentiated mouse 3T3L1 cells assessed as reduction in 11beta-HSD1 expression at 50 uM measured on day 7 by Western blot analysis; format: functional, cell-based
[12] = tested on: 3T3-L1; assay: Effect on total GR expression in differentiated mouse 3T3L1 cells at 50 uM measured on day 3 and 7 by Western blot analysis; format: ADME, cell-based; conditions: 3t3-l1, 50 µM
[13] = tested on: 3T3-L1; assay: Cytotoxicity against mouse 3T3L1 cells measured after 72 hrs by celltiter-glo luminescent cell viability assay; format: ADME, cell-based; conditions: 3T3-L1, 72 h
[14] = organism: Homo sapiens; assay: Anti-adipogenic activity in human visceral preadipocytes assessed as reduction in pre-adipocyte differentiation into matured adipocytes at 50 uM incubated for 48 hrs under induction medium containing hydrocortisone hemi-succinate prior to compound washout followed by shifting to differentiation medium containing compound supplemented with fresh medium every 48 to 72 hrs for 9 to 14 days by oil red O staining-based microscopic analysis; format: functional, cell-based
[15] = tested on: 3T3-L1; assay: Cytotoxicity against mouse 3T3L1 preadipocytes up to 1 mM measured after 72 hrs under non-differentiating medium by celltiter-glo luminescent cell viability assay; format: cell-based; conditions: 3t3-l1, 72 h
[16] = tested on: 3T3-L1; assay: Anti-adipogenic activity in differentiated mouse 3T3L1 cells assessed as reduction in ACACB mRNA expression at 50 to 100 uM measured after 2 to 7 days by SYBR green dye-based qRT-PCR analysis; format: functional, cell-based
[17] = tested on: 3T3-L1; assay: Anti-adipogenic activity in differentiated mouse 3T3L1 cells assessed as reduction in PGC1alpha expression at 50 uM measured on day 3 by Western blot analysis; format: functional, cell-based
[18] = Half life in human liver microsomes; format: ADME, Microsome
[19] = tested on: 3T3-L1; assay: Cell cycle arrest in mouse 3T3L1 preadipocytes up to 1 mM measured after 24 hrs under non-differentiating medium by propidium iodide staining-based flow cytometry; format: ADME; conditions: 3t3-l1, 24 h
[20] = tested on: 3T3-L1; assay: Anti-adipogenic activity in mouse 3T3L1 preadipocytes assessed as reduction in S6K1 mRNA expression at 50 to 100 uM measured daily for 2 days under induction media containing dehydrocorticosterone/cortisone by SYBR green dye-based qRT-PCR analysis; format: functional, cell-based
[21] = Volume of distribution at steady state in C57BL6 mouse at 5 to 30 mg/kg, iv by LC-MS analysis; format: ADME, organism-based; conditions: in vivo
[22] = tested on: 3T3-L1; assay: Cytotoxicity against mouse 3T3L1 cells up to 1 mM measured after 72 hrs under induction medium containing dehydrocorticosterone/cortisone by celltiter-glo luminescent cell viability assay; format: cell-based; conditions: 3t3-l1, 72 h
[23] = tested on: 3T3-L1; assay: Anti-adipogenic activity in mouse 3T3L1 preadipocytes assessed as decrease in lipid accumulation at 10 uM incubated for 48 hrs under induction medium containing dehydrocorticosterone/cortisone followed by shifting to differentiation medium and measured after 7 days by Oil red O staining-based microscopic analysis; format: functional, cell-based
[24] = tested on: 3T3-L1; assay: Anti-adipogenic activity in mouse 3T3L1 preadipocytes assessed as decrease in lipid accumulation at 50 uM incubated for 48 hrs under induction medium containing dehydrocorticosterone/cortisone followed by shifting to differentiation medium and measured after 7 days by Oil red O staining-based microscopic analysis; format: functional, cell-based
[25] = tested on: Fibroblast; assay: Effect on nascent protein synthesis in mouse fibroblasts assessed as reduction in O-Propargyl-puromycin incorporation at 50 uM by fluorescent azide/pico green dye-based confocal microscopic analysis; format: ADME, cell-based
[26] = biological target: T1, Peroxisome proliferator-activated receptor gamma (Homo sapiens) (UniProt P37231); assay: Antagonist activity at human PPARgamma expressed in 293H cells assessed as reduction in rosiglitazone-induced transcriptional response at 0.002 to 4 uM preincubated for 30 mins followed by rosiglitazone addition and measured after 16 hrs by reporter gene-based FRET assay; format: cell-based
T1 sequence (whole entry): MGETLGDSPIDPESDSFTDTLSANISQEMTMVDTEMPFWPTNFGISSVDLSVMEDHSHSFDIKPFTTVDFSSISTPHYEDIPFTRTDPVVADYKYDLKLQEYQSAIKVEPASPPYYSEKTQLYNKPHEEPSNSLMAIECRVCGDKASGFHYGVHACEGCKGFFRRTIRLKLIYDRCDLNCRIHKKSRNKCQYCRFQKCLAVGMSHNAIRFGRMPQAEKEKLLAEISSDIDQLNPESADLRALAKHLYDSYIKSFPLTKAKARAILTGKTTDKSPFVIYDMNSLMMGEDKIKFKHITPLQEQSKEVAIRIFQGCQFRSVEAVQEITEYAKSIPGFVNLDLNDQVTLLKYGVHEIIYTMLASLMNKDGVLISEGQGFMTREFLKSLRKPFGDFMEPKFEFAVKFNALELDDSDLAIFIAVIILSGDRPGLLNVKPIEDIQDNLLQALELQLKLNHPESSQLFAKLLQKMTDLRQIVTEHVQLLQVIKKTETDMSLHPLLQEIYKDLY

[27] = tested on: 3T3-L1; assay: Anti-adipogenic activity in mouse 3T3L1 preadipocytes assessed as restoration of cell morphology at 50 uM incubated for 48 hrs under induction medium containing dehydrocorticosterone/cortisone followed by shifting to differentiation medium and measured after 7 days by mitotracker red/lipidtox green staining-based confocal microscopic analysis; format: functional

For `CC1=CC[C@@]2(C[C@@H]1O)[C@@H](C(=O)O)CC[C@H]2C(C)C`, which Activity [1] is on record?
Its Activity is “Active”.

And the Activity [2]?
The Activity was “inactive”.

What about the Activity [3] of the same molecule?
Its Activity is “inactive”.

And the Activity [4]?
Its Activity is “Active”.

What about the IC50 [5] of the same molecule?
Its IC50 is 4.1 µM.

What about the Activity [6] of the same molecule?
Its Activity is “Active”.

What about the t1/2 [7] of the same molecule?
Its t1/2 is 1.33 h.

What about the Activity [8] of the same molecule?
Its Activity is “Active”.

And the Activity [9]?
The Activity was “inactive”.

And the Activity [10]?
Its Activity is “Active”.

And the Activity [11]?
Its Activity is “Active”.

And the Activity [12]?
The Activity was “Non-Toxic”.

And the EC50 [13]?
Its EC50 is over 500 µM.

What about the Activity [14] of the same molecule?
Its Activity is “Active”.

And the Activity [15]?
Its Activity is “Non-Toxic”.

What about the Activity [16] of the same molecule?
Its Activity is “Active”.

And the Activity [17]?
Its Activity is “inactive”.

And the t1/2 [18]?
The t1/2 was 1.18 h.

What about the Activity [19] of the same molecule?
Its Activity is “Non-Toxic”.

What about the Activity [20] of the same molecule?
The Activity was “Active”.

What about the Vdss [21] of the same molecule?
Its Vdss is 0.247 L/kg.

And the Activity [22]?
The Activity was “Non-Toxic”.

What about the Activity [23] of the same molecule?
Its Activity is “Active”.

What about the Activity [24] of the same molecule?
The Activity was “Active”.

What about the Activity [25] of the same molecule?
Its Activity is “Non-Toxic”.

What about the Activity [26] of the same molecule?
The Activity was “inactive”.

And the Activity [27]?
Its Activity is “Active”.
